In patent publication US20260207621A1 (Vividion Therapeutics, Inc., priority 2022, published 2026):

Assays:
KEAP1 C151 = target: T1, KEAP1 C151 (Homo sapiens, UniProt Q14145); assay: Nrf2 TMT measurement: in vitro TE50 for KEAP1 C151 (IA-DTB competition, targeted TMT mass spectrometry) in MDA-MB-468 cell lysate; format: binding; conditions: in vitro target engagement of KEAP1 C151, targeted TMT, read-out: KEAP1_C151 TE50
T1 construct: treating 500 μg of cell lysate generated from MDA-MB-468 breast cancer cells with DMSO or compound; endogenous in cells; host or cells: MDA-MB-468 breast cancer cell lysate
Description: In vitro TE50 values for KEAP_C151 were obtained by treating 500 μg of cell lysate generated from MDA-MB-468 breast cancer cells with DMSO or compound for 1 hour at room temperature followed by the addition of 200 μM IA-DTB (in DMSO) for one hour at room temperature. Samples were then precipitated by the addition of 8× ice cold acetonitrile and incubated at −80° C. for two hours. Protein was then pelleted by centrifugation (4,200 RPM, 45 min, 4° C.). The pelleted material was resuspended in 9M Urea, 50 mM ammonium bicarbonate and proteins were reduced and alkylated by the addition of DTT and iodoacetamide (10 and 30 mM, respectively). Following reduction and alkylation, samples were exchanged into 2M urea (Zeba spin desalting plates, Thermo Fisher) and digested with Trypsin. IA-DTB labeled peptides were isolated with streptavidin agarose resin. Enriched peptides were eluted by the addition of 50% acetonitrile (ACN) 0.1% Formic Acid (FA) and dried in a SpeedVac vacuum concentrator.
Dried peptides were resuspended in 0.2 M EPPS pH 8.5 and treated with 6.5 μL of 11-plex tandem mass tag (TMT) (8.3 μg/μL in dry ACN) for 2 hours at room temperature. Reactions were quenched by the addition of 6.5 μL of 5% Hydroxylamine. Samples were then combined and desalted on a Biotage Evolute express ABN plate (600-0010-PX01).
Targeted TMT. Targeted TMT measurements were collected using an Orbitrap LumosTribrid Mass Spectrometer (Thermo Scientific) coupled to an UltiMate 3000 Series Rapid Separation LC system and autosampler (Thermo Scientific Dionex). Peptides were eluted onto a custom C18 capillary analytical column (75-μm inner diameter fused silica, packed with Acclaim PepMap C18 resin (Thermo Scientific)) using an Acclaim PepMap 100 (Thermo 164535) loading column, and separated at a flow rate of 1.0 μl min−1. Data were acquired using a specific MS3-based TMT method targeting the peptide containing KEAP1 C151 (C(+324.2)[…], +3 charge state) where MS2 peptide fragmentation is triggered upon detection of the peptide precursor ion. Subsequent MS3 analysis was then performed using pre-selected peptide fragment ions that were isolated for fragmentation using synchronous precursor selection. RAW files were converted to MZXML format and searched with the SEQUEST algorithm using the MassPike software package. TMT quantitation was performed with a filter requiring at least ten summed signal-to-noise for control channels. Quantified signals were used for dose response curve-fitting and IC50 calculation using R's drc package.

Nrf2 = Nrf2 antagonism assay: ARE luciferase reporter in KYSE-70 cells; format: cell-based; conditions: positive Imax corresponds to Nrf2 antagonism; for Emax: Homo sapiens, KYSE-70, KYSE-70 cells, read-out: KYSE70 Cellular ARE Luciferase Imax (%); for KYSE70 Cellular ARE Luciferase Imax (%): KYSE-70 cells
Procedure, shortened: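 Dose-response curves give IC50 and Imax, with positive Imax read as Nrf2 antagonism, i.e. reduced luciferase signal. Reporter cells are Nrf2-high KYSE-70 (Nrf2 W24C mutant) bearing ARE-controlled luciferase. Antagonists are proposed to act at KEAP1 C151, speeding Nrf2 degradation.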

T1 sequence (Q14145 whole entry): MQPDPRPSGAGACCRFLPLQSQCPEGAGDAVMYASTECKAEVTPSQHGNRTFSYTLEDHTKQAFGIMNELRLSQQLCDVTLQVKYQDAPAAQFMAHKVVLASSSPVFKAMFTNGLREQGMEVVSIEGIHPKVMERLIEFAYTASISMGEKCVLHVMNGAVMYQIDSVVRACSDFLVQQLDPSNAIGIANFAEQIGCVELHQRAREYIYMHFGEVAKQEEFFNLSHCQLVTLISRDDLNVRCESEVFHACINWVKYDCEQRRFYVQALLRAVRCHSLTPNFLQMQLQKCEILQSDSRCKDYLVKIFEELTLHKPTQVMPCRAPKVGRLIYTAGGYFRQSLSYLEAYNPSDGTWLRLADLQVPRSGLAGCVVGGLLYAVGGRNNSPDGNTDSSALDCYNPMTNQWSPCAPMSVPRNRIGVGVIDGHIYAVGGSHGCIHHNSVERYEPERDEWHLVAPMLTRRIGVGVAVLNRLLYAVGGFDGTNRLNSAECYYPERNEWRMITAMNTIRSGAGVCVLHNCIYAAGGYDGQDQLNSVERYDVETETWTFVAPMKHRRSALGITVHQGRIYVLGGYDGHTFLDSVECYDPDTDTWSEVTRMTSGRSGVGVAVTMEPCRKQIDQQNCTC

C=CC(=O)N1CCC(F)(F)CC1c1cc(Cl)cc(-c2ccnc(N)n2)c1 (single isomer, unassigned) [Compound 284, 1-(2-(3-(2-aminopyrimidin-4-yl)-5-chlorophenyl)-4,4-difluoropiperidin-1-yl)prop-2-en-1-one]
IC50 (KEAP1 C151): 83 nM
Emax (Nrf2): 94%

C=CC(=O)N1CCN(C(C)=O)C[C@H]1c1cc(Cl)cc(C2CCOCC2)c1 (single isomer, unassigned) [Compound 26]
IC50 (KEAP1 C151): 88 nM
Emax (Nrf2): 56%

C=CC(=O)N1CCOC[C@H]1c1cc(Cl)cc(-c2ncc(NC(C)=O)cn2)c1 (single isomer, unassigned) [Compound 248]
IC50 (KEAP1 C151): 10 nM
Emax (Nrf2): 89%

C=CC(=O)N1CCOC[C@H]1c1cc(Cl)cc(-c2ccc(F)c(C(N)=O)c2)c1 (single isomer, unassigned) [Compound 44]
IC50 (KEAP1 C151): 15.7 nM
Emax (Nrf2): 93%

C=CC(=O)N1CCN(S(C)(=O)=O)C[C@H]1c1cc(Cl)cc(-c2ccnc(N)n2)c1 (single isomer, unassigned) [Compound 124]
IC50 (KEAP1 C151): 18 nM
Emax (Nrf2): 72%

C=CC(=O)N1CCN(S(C)(=O)=O)C[C@H]1c1cc(Cl)cc(-c2ccnc(N3CCCC3=O)c2)c1 (single isomer, unassigned) [Compound 16]
IC50 (KEAP1 C151): 2.2 nM
Emax (Nrf2): 62%

C=CC(=O)N1C[C@@H](C)N(C(C)=O)C[C@@H]1c1cc(Cl)cc(-c2ncc(N)cn2)c1 (single isomer, unassigned) [Compound 237]
IC50 (KEAP1 C151): 140 nM
KYSE70 Cellular ARE Luciferase Imax (%) (Nrf2): 50%

C=CC(=O)N1CC(C)(C)OC[C@H]1c1cc(Cl)cc(-c2ncnc(N)n2)c1 (single isomer, unassigned) [Compound 66]
IC50 (KEAP1 C151): 23 nM
Emax (Nrf2): 93%

C=CC(=O)N1CCOC[C@H]1c1cc(Cl)cc(-c2cc(C(N)=O)ccn2)c1 (single isomer, unassigned) [Compound 298]
IC50 (KEAP1 C151): 32 nM
Emax (Nrf2): 94%

C=CC(=O)N1CCOC[C@H]1c1cc(Cl)cc(-c2ccnc(N3CCCC3=O)c2)c1 (single isomer, unassigned) [Compound 12]
IC50 (KEAP1 C151): 3.9 nM
Emax (Nrf2): 68%

C=CC(=O)N1CC(C)(C)OCC1c1cc(Cl)nc(-c2ccnc(C)n2)c1 (single isomer, unassigned) [Compound 120, 1-(5-(2-chloro-6-(2-methylpyrimidin-4-yl)pyridin-4-yl)-2,2-dimethylmorpholino)prop-2-en-1-one]
IC50 (KEAP1 C151): 110 nM
Emax (Nrf2): 77%

C=CC(=O)N1CCS(=O)(=O)CC1c1cc(Cl)cc(-c2ncc(N)cn2)c1 (single isomer, unassigned) [Compound 207, 1-(3-(3-(5-aminopyrimidin-2-yl)-5-chlorophenyl)-1,1-dioxidothiomorpholino)prop-2-en-1-one]
IC50 (KEAP1 C151): 45 nM
Emax (Nrf2): 90%

C=CC(=O)N1CCOC[C@H]1c1cc(Cl)cc(-c2cc(OC)ccn2)c1 (single isomer, unassigned) [Compound 105]
IC50 (KEAP1 C151): 36 nM
Emax (Nrf2): 92%

C=CC(=O)N1CCOCC1c1cc(Cl)cc(-c2cccc(C(N)=O)c2F)c1 (single isomer, unassigned) [Compound 73, 3′-(4-acryloylmorpholin-3-yl)-5′-chloro-2-fluoro-[1,1′-biphenyl]-3-carboxamide]
IC50 (KEAP1 C151): 56 nM
Emax (Nrf2): 74%

C=CC(=O)N1CC2(CCCC2)OCC1(C)c1cc(Cl)cc(-c2ncnc(N)n2)c1 (single isomer, unassigned) [Compound 164, 1-(8-(3-(4-amino-1,3,5-triazin-2-yl)-5-chlorophenyl)-8-methyl-6-oxa-9-azaspiro[4.5]decan-9-yl)prop-2-en-1-one]
IC50 (KEAP1 C151): 440 nM
Emax (Nrf2): 85%

C=CC(=O)N1CC(C)(C)OCC1c1cc(Cl)nc(-c2cc(N)ncn2)c1 (single isomer, unassigned) [Compound 150, 1-(5-(2-(6-aminopyrimidin-4-yl)-6-chloropyridin-4-yl)-2,2-dimethylmorpholino)prop-2-en-1-one]
IC50 (KEAP1 C151): 31 nM
Emax (Nrf2): 97%

C=CC(=O)N1[C@H](C)COC[C@H]1c1cc(Cl)cc(-c2ccnc(N3CCCC3=O)c2)c1 (single isomer, unassigned) [Compound 18]
IC50 (KEAP1 C151): 10 nM
Emax (Nrf2): 69%

C=CC(=O)N1[C@H](C(=O)NC)COC[C@H]1c1cc(Cl)nc(-c2cc(N)ncn2)c1 (single isomer, unassigned) [Compound 173]
IC50 (KEAP1 C151): < 6.4 nM
Emax (Nrf2): 86%

C=CC(=O)N1CC(C)(C)OC[C@H]1c1cc(Cl)cc(-c2ccc3nccnc3c2)c1 (single isomer, unassigned) [Compound 47]
IC50 (KEAP1 C151): 20 nM
Emax (Nrf2): 74%

C=CC(=O)N1CCN(S(C)(=O)=O)C[C@H]1c1cc(Cl)cc(-c2cc[nH]c(=O)c2)c1 (single isomer, unassigned) [Compound 15]
IC50 (KEAP1 C151): 22 nM
Emax (Nrf2): 57%

C=CC(=O)N1CCOC[C@H]1c1cc(Cl)cc(-c2cccc(OC)n2)c1 (single isomer, unassigned) [Compound 100]
IC50 (KEAP1 C151): 140 nM
Emax (Nrf2): 78%

C=CC(=O)N1CCOC[C@H]1c1cc(Cl)cc(-n2cnc(N)n2)c1 [Compound 215, (R)-1-(3-(3-(3-amino-1H-1,2,4-triazol-1-yl)-5-chlorophenyl)morpholino)prop-2-en-1-one]
IC50 (KEAP1 C151): 350 nM
Emax (Nrf2): 65%

C=CC(=O)N1CCOC[C@H]1c1cc(Cl)cc(-c2nc(C)cc(C)n2)c1 (single isomer, unassigned) [Compound 93]
IC50 (KEAP1 C151): 40 nM
Emax (Nrf2): 91%

C=CC(=O)N1CCOC[C@H]1c1cc(Cl)cc(-c2ncc(C)cn2)c1 (single isomer, unassigned) [Compound 101]
IC50 (KEAP1 C151): 24 nM
Emax (Nrf2): 87%

C=CC(=O)N1CCOC[C@H]1c1cc(Cl)cc(C2CNC(=O)CO2)c1 (single isomer, unassigned) [Compound 232]
IC50 (KEAP1 C151): 140 nM
KYSE70 Cellular ARE Luciferase Imax (%) (Nrf2): 84%

C=CC(=O)N1CCOC[C@H]1c1cc(Cl)cc(-c2ncc(N)c(F)n2)c1 (single isomer, unassigned) [Compound 278]
IC50 (KEAP1 C151): 6.1 nM
Emax (Nrf2): 87%

C=CC(=O)N1CCOC[C@H]1c1cc(Cl)cc(-c2cncc(N)n2)c1 (single isomer, unassigned) [Compound 250]
IC50 (KEAP1 C151): 36 nM
Emax (Nrf2): 92%

C=CC(=O)N1[C@H](c2cc(Cl)nc(-c3ccc(F)c(C(N)=O)c3)c2)COC[C@H]1C(F)F (single isomer, unassigned) [Compound 180]
IC50 (KEAP1 C151): 7.3 nM
Emax (Nrf2): 90%

C=CC(=O)N1CC(C)(C)OC[C@H]1c1cc(Cl)cc(-c2cnc(N)c(N)n2)c1 (single isomer, unassigned) [Compound 286]
IC50 (KEAP1 C151): 32 nM
Emax (Nrf2): 96%

C=CC(=O)N1CCOC[C@H]1c1cc(Cl)cc(-c2ccn(C)c(=O)c2)c1 (single isomer, unassigned) [Compound 13]
IC50 (KEAP1 C151): 50 nM
Emax (Nrf2): 72%

C=CC(=O)N1CCOCC1c1cc(Cl)nc(-c2ccn3ccnc3c2)c1 (single isomer, unassigned) [Compound 64, 1-(3-(2-chloro-6-(imidazo[1,2-a]pyridin-7-yl)pyridin-4-yl)morpholino)prop-2-en-1-one]
IC50 (KEAP1 C151): 1 nM
Emax (Nrf2): 75%

C=CC(=O)N1CCC(F)(F)CC1c1cc(Cl)cc(-c2cc(C)ncn2)c1 (single isomer, unassigned) [Compound 285, 1-(2-(3-chloro-5-(6-methylpyrimidin-4-yl)phenyl)-4,4-difluoropiperidin-1-yl)prop-2-en-1-one]
IC50 (KEAP1 C151): 22 nM
Emax (Nrf2): 83%

C=CC(=O)N1CC(C)(C)OC[C@H]1c1cc(Cl)cc(-c2ccnc(C(N)=O)c2)c1 (single isomer, unassigned) [Compound 133]
IC50 (KEAP1 C151): 72 nM
Emax (Nrf2): 85%

C=CC(=O)N1CCOC[C@H]1c1cc(Cl)cc(-c2nc(C)nc(N)n2)c1 (single isomer, unassigned) [Compound 178]
IC50 (KEAP1 C151): 30 nM
Emax (Nrf2): 93%

C=CC(=O)N1CCOC[C@H]1c1cc(Cl)cc(-c2ncc(OC)cn2)c1 (single isomer, unassigned) [Compound 103]
IC50 (KEAP1 C151): 17 nM
Emax (Nrf2): 85%
